ChEMBL document CHEMBL1201862, “PubChem BioAssay data set” (2004)
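Tested at 5 concentrations; 48 h exposure; 96-well plates; endpoints linearly interpolated, else capped at highest concentration. Abbreviation: GI50, concentration required for 50% inhibition of growth.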 Activity calls are given as the source filed them. Cut-off read from the data, not from the text of the source: active = GI50 up to about 1.1 µM and inactive = higher. Residues, ends and D or L forms follow the SMILES beside them. *: point of attachment. Boc = CC(C)(C)OC(=O)*; OBn = c1ccc(CO*)cc1

Experiments:
Test in all cases: DTP human tumour cell line panel, 48 h
HCT-116 = tested on: HCT-116
EKVX = tested on: EKVX
LOX IMVI = tested on: LOX IMVI
NCI-H522 = tested on: NCI-H522
HT-29 = tested on: HT-29
MDA-MB-231 = tested on: MDA-MB-231
K562 = tested on: K562
RPMI-8226 = tested on: RPMI-8226
HCC 2998 = tested on: HCC 2998
IGROV-1 = tested on: IGROV-1
COLO 205 = tested on: COLO 205
PC-3 = tested on: PC-3
UACC-257 = tested on: UACC-257
SW-620 = tested on: SW-620
SK-OV-3 = tested on: SK-OV-3
HOP-92 = tested on: HOP-92
OVCAR-4 = tested on: OVCAR-4
A498 = tested on: A498

Measured: GI50

COc1cc2c(c(OC)c1OC)C(=O)[C@H](O)[C@H]2NC(N)=O
inactive: HCT-116 79.4 µM | EKVX 99.5 µM | LOX IMVI 72.1 µM | NCI-H522 > 100 µM | HT-29 > 100 µM | MDA-MB-231 86.3 µM | K562 > 100 µM | RPMI-8226 > 100 µM | HCC 2998 > 100 µM | IGROV-1 49.5 µM | COLO 205 50.7 µM | PC-3 > 100 µM | UACC-257 85.5 µM | SW-620 > 100 µM

Cc1cc(=O)oc2c(CNC(Cc3ccccc3)C(=O)O)c(O)ccc12 (configuration not stated)
inactive: SK-OV-3 > 100 µM | HOP-92 > 100 µM | HCT-116 > 100 µM | EKVX > 100 µM | LOX IMVI > 100 µM | NCI-H522 > 100 µM | HT-29 > 100 µM | MDA-MB-231 > 100 µM | K562 > 100 µM | RPMI-8226 > 100 µM | HCC 2998 > 100 µM | IGROV-1 > 100 µM | COLO 205 > 100 µM | OVCAR-4 > 100 µM | PC-3 > 100 µM | UACC-257 > 100 µM | SW-620 > 100 µM

CN(COC(=O)c1ccccc1)c1nc(N(C)COC(=O)c2ccccc2)nc(N(C)COC(=O)c2ccccc2)n1
inactive: SK-OV-3 > 65.2 µM | HOP-92 13.1 µM | HCT-116 44.5 µM | EKVX > 83.6 µM | LOX IMVI > 100 µM | NCI-H522 52.4 µM | HT-29 > 100 µM | MDA-MB-231 15.7 µM | K562 > 27.4 µM | RPMI-8226 > 100 µM | HCC 2998 > 100 µM | IGROV-1 28.8 µM | COLO 205 > 100 µM | OVCAR-4 47.5 µM | PC-3 > 100 µM | UACC-257 > 91.4 µM | SW-620 > 100 µM

O=C(CC(C(=O)c1ccsc1)c1cccs1)c1ccsc1 (configuration not stated)
inactive: SK-OV-3 54.6 µM | EKVX 49.9 µM | LOX IMVI 34.1 µM | HT-29 63.1 µM | MDA-MB-231 92 µM | K562 42.8 µM | RPMI-8226 12.1 µM | HCC 2998 > 100 µM | IGROV-1 > 100 µM | COLO 205 45.1 µM | OVCAR-4 73.5 µM | PC-3 28.5 µM | UACC-257 51.4 µM | SW-620 > 100 µM | A498 81.8 µM

CCCCOC(=O)NC(Nc1cccc(C(F)(F)F)c1)(C(F)(F)F)C(F)(F)F
inactive: HOP-92 23.9 µM | HCT-116 > 100 µM | EKVX 51.5 µM | LOX IMVI 32.1 µM | NCI-H522 56.4 µM | HT-29 50.8 µM | MDA-MB-231 > 100 µM | K562 30.5 µM | RPMI-8226 17.2 µM | IGROV-1 49.5 µM | COLO 205 45.7 µM | OVCAR-4 99.8 µM | PC-3 68.7 µM | UACC-257 84.9 µM | SW-620 64.3 µM | A498 > 100 µM

CC1CC(NN(C)C)C2(C(N)=O)C(N)=NC(=O)C12C#N (configuration not stated)
inactive: SK-OV-3 > 100 µM | HOP-92 > 100 µM | HCT-116 > 100 µM | EKVX > 100 µM | LOX IMVI > 100 µM | NCI-H522 > 100 µM | HT-29 > 100 µM | MDA-MB-231 > 100 µM | K562 > 100 µM | RPMI-8226 > 100 µM | HCC 2998 > 100 µM | IGROV-1 > 100 µM | COLO 205 > 100 µM | PC-3 > 100 µM | UACC-257 > 100 µM | SW-620 > 100 µM | A498 > 100 µM

C=C(CS(=O)(=O)c1ccccc1)C(=O)OCC
inactive: SK-OV-3 14.4 µM | HOP-92 21.4 µM | HCT-116 13.4 µM | EKVX 19.7 µM | LOX IMVI 10.5 µM | NCI-H522 3.41 µM | HT-29 11.2 µM | K562 5.33 µM | HCC 2998 19.4 µM | IGROV-1 19 µM | COLO 205 18.9 µM | UACC-257 12.8 µM | SW-620 10.5 µM

CC1=NN(C(=O)CC(=O)N(C(=O)c2ccccc2Cl)c2ccc(C)cc2)C(=O)C1/N=N/c1ccc([N+](=O)[O-])cc1 (configuration not stated)
inactive: SK-OV-3 31.8 µM | HOP-92 36.6 µM | HCT-116 17.7 µM | EKVX > 72.9 µM | LOX IMVI 23.9 µM | NCI-H522 > 100 µM | HT-29 > 63.4 µM | K562 > 53.5 µM | RPMI-8226 > 50.4 µM | HCC 2998 > 100 µM | IGROV-1 56.2 µM | COLO 205 > 43.6 µM | OVCAR-4 67.9 µM | UACC-257 > 78.3 µM | SW-620 > 39.2 µM | A498 > 58.5 µM

COc1ccc2c(c1)nc1n2C(c2c(F)cccc2Cl)SC1 (configuration not stated)
inactive: HOP-92 > 37.3 µM | HCT-116 4.14 µM | EKVX 26.1 µM | LOX IMVI 6.64 µM | HT-29 4.52 µM | MDA-MB-231 3.49 µM | K562 > 100 µM | HCC 2998 4.2 µM | IGROV-1 6.17 µM | COLO 205 3.98 µM | UACC-257 18.2 µM | A498 5.89 µM

O=C(O)CCCSC(=O)Nc1ccc(/N=N/c2ccccc2)cc1
inactive: HCT-116 > 100 µM | EKVX > 100 µM | LOX IMVI > 100 µM | NCI-H522 > 100 µM | HT-29 > 100 µM | K562 65.9 µM | RPMI-8226 > 100 µM | HCC 2998 > 100 µM | COLO 205 > 100 µM | OVCAR-4 > 100 µM | UACC-257 > 100 µM | SW-620 > 100 µM | A498 > 100 µM

Cc1ccc(-c2nnc(CCCCCCCCc3nnc(-c4ccc(C)cc4O)n3N)n2N)c(O)c1
inactive: SK-OV-3 39.2 µM | HOP-92 9.71 µM | HCT-116 > 100 µM | EKVX > 100 µM | LOX IMVI > 100 µM | NCI-H522 > 100 µM | MDA-MB-231 > 100 µM | RPMI-8226 > 100 µM | HCC 2998 > 100 µM | IGROV-1 > 100 µM | COLO 205 > 100 µM | OVCAR-4 > 100 µM | UACC-257 > 100 µM | SW-620 > 100 µM | A498 > 100 µM

CCOC(=O)c1c(-c2cccc3ccccc23)c(C#N)c(=S)n(C2OC(COC(C)=O)C(OC(C)=O)C(OC(C)=O)C2OC(C)=O)c1C (configuration not stated)
inactive: SK-OV-3 > 100 µM | HOP-92 > 100 µM | HCT-116 > 100 µM | LOX IMVI > 100 µM | NCI-H522 > 100 µM | HT-29 > 100 µM | MDA-MB-231 > 100 µM | K562 > 100 µM | HCC 2998 > 100 µM | IGROV-1 > 100 µM | COLO 205 > 100 µM | OVCAR-4 > 100 µM | PC-3 15.8 µM | UACC-257 > 100 µM | A498 > 100 µM

CC(C)C(NC(=O)C(Cc1ccccc1)NC(=O)OC(C)(C)C)C(=O)NCC(=O)OCc1ccccc1 (stereo not drawn) (Boc-Phe-Val-Gly-OBn; configuration not given here)
inactive: SK-OV-3 13.4 µM | HCT-116 23.7 µM | EKVX 20.4 µM | LOX IMVI 14.9 µM | NCI-H522 6.55 µM | HT-29 17.5 µM | MDA-MB-231 16.6 µM | K562 7.76 µM | RPMI-8226 16.5 µM | HCC 2998 17.8 µM | IGROV-1 14.7 µM | COLO 205 20.6 µM | OVCAR-4 3.87 µM | PC-3 15.7 µM | UACC-257 20.4 µM | SW-620 14.3 µM | A498 44.6 µM
